Data from paper PMC5082902, “Exported Epoxide Hydrolases Modulate Erythrocyte Vasoactive Lipids during Plasmodium falciparum Infection” (mBio, 2016).

Columns and labels:
Experiment in all cases: ELISA of […]([…])-DHET diol product
Type in all cases: biochemical
Conditions in all cases: 6 or 12 uM EET, 100 ug enzyme in 100 ul PBS, 37 C, 1.5 h
[1] = biological target: T1, PfEH2 (Plasmodium falciparum, UniProt Q8IM75)
T1 construct: gene PF3D7_1401300; borders of the construct only in supplement

[2] = biological target: T2, PfEH1 (Plasmodium falciparum, UniProt Q9Y013)
T2 construct: gene PF3D7_0301300; borders of the construct only in supplement
T2 sequence (Q9Y013 entry or part of it): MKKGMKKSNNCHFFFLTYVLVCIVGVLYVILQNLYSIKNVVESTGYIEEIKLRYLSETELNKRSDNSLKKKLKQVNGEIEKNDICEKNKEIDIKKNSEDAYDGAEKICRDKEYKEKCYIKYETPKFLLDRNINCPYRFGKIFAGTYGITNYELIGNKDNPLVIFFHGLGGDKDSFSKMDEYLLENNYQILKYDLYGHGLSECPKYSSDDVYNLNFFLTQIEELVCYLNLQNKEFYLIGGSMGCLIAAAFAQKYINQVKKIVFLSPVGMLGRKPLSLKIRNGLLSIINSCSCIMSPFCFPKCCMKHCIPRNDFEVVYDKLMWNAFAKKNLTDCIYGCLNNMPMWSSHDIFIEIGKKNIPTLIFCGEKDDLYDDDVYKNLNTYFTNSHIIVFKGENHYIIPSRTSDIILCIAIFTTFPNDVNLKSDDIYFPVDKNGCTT

[3] = biological target: T1, PfEH2; remark: listed apart in the source

T1 sequence (Q8IM75 entry or part of it): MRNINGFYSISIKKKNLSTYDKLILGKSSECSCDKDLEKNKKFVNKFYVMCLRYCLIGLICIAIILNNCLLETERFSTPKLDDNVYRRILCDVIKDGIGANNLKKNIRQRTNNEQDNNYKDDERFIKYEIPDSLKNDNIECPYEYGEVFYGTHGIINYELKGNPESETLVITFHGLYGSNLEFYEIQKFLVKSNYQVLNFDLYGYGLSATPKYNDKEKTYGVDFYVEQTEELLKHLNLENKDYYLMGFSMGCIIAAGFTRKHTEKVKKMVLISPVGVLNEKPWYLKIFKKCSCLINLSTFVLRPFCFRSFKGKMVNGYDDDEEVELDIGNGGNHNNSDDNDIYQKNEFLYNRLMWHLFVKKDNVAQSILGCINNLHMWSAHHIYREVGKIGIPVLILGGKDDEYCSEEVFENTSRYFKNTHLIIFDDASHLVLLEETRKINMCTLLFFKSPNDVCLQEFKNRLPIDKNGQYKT

| Compound | ELISA of 11(12)-DHET diol product [1] | ELISA of 11(12)-DHET diol product [2] | ELISA of 14(15)-DHET diol product [3] |
| --- | --- | --- | --- |
| CCCCC/C=C\CC1OC1C/C=C\C/C=C\CCCC(=O)O (stereo not drawn) [11(12)-EET] | Both recombinant PfEH1 and PfEH2 enzymes increased the formation of the diol product | Both recombinant PfEH1 and PfEH2 enzymes increased the formation of the diol product |  |
| CCCCCC1OC1C/C=C\C/C=C\C/C=C\CCCC(=O)O (stereo not drawn) [14(15)-EET] |  |  | Both recombinant PfEH1 and PfEH2 enzymes increased the formation of the diol product |
